The results in this text go back to patent US20100297109A1, “METHODS FOR INHIBITING FASCIN” (Cornell University, priority 2007, published 2010).

This test concerns the target T1, fascin His474 to Ala mutant (Homo sapiens, UniProt Q16658, H474A).
T1 construct: GST (N, cleaved yes); made in house; host or cells: Escherichia coli BL21 (pGEX4T-Fascin1)
Description: Actin bundling assay with fascin H474A mutant. It is filed as biochemical. The source says:
Identification of fascin as the protein target of migrastatin analogs. Whole cell lysates from 4T1 mouse breast tumor cells were made. After preclearing the cell lysate with immobilized neutravidin biotin binding protein (Pierce, IL, USA) to remove biotin and avidin-binding proteins, the cell lysates were loaded to a column packed with the biotin-labeled macroketone (conjugated to neutravidin beads). A control column packed with free biotin and neutravidin beads was run side-by-side. After washing the column with 10 bed volumes of lysis buffer with 300 mM NaCl, the bound proteins were eluted with 0.1 M Glycine-HCl at pH 2.8 according to the manufacturer's instruction. […] A 1-liter culture was grown to an A600 reading of 1.0 and then induced by addition of 0.3 mM isopropyl 1-thio-D-galactopyranoside (IPTG) for 12 hours at 25° C. […] Actin bundling activity was measured by low speed centrifugation assay and fluorescence microscopy. […] Both supernatants and pellets were dissolved in an equivalent volume of SDS sample buffer, and the amount of actin was determined by SDS-PAGE. For fluorescence microscopy, monomeric G-actin was polymerized as described above. […] The samples were mounted between a slide and a coverslip coated with poly-lysine and imaged by fluorescence microscopy. […] Both supernatants and pellets were dissolved in an equivalent volume of SDS sample buffer and analyzed by SDS-PAGE. […]

Take `COC1C=CCCCCC(=O)CCC(C)=CC(C)C1O` (stereo not shown) [macroketone, Migrastatin ketone]: the “sensitivity of actin bundling activity of fascin mutant” value is “resistant”.
